Tests used:
Arabidopsis RACK1A = target: T1, Arabidopsis RACK1A (Arabidopsis thaliana, UniProt O24456); assay: western blot of RACK1A tyrosine phosphorylation in Arabidopsis leaves under heat stress; assay type: in vivo
T1 construct: from tissue; host or cells: Arabidopsis plant leaves
Method: In the examples described herein, the test compounds (e.g., SD-29 or analogs thereof) were dissolved in dimethyl sulfoxide (DMSO) to provide a 20 mM concentration. Micromolar concentrations were then prepared as needed by addition to the water incubation media. Unless stated otherwise, the experimental plants were incubated with the roots immersed in the water containing the compound. The control plants received only DMSO in the same amount as that of the compound. In the second group (FIG. 3), Arabidopsis plants were held at 42° C. for six hours and compared to control plants held at about 22° C. The Arabidopsis plant in the experimental group was treated with 60 μM SD-29 in water. A control plant received water and DMSO. Lysates were then prepared from the leaves and western blots were performed using immobilized mouse anti-pTRY and Arabidopsis-anti RAC[…]. […] A similar experiment was carried out using analog SD-29-9 and SD-29 at 42° C. for three hours. […] A western blot was then performed using an antibody that was raised targeting phosphorylated […] residue of RAC[…].

rice detached leaves = assay: salt-induced stress in rice detached leaves; assay type: in vivo; conditions: seven days
Method: In the examples described herein, the test compounds (e.g., SD-29 or analogs thereof) were dissolved in dimethyl sulfoxide (DMSO) to provide a 20 mM concentration. Micromolar concentrations were then prepared as needed by addition to the water incubation media. Unless stated otherwise, the experimental plants were incubated with the roots immersed in the water containing the compound. The control plants received only DMSO in the same amount as that of the compound. The effect of SD-29 on modulating salt-induced stress was evaluated with rice detached leaves at room temperature (about 24° C.) for seven days in a water incubation medium. All plants received sufficient incubation medium to last the seven days. Plant A (left most) received 250 mM NaCl plus DMSO, Plant B (right of Plant A) received 60 μM SD-29 and 250 mM NaCl, and plant D received 60 μM SD-29 in the incubation medium. The incubation medium of Plant C was untreated. The rice plant leaves were photographed directly after seven days. […] Much of the chlorophyll of plant A (salt treatment alone) was degraded, while SD-29 treated leaves (Leaf B) maintained the chlorophyll level even in the presence of the same amount of salt.

Arabidopsis protoplasts = assay: H2O2-induced reactive oxygen species in Arabidopsis protoplasts (H2DCF staining); assay type: cell-based, Arabidopsis thaliana; conditions: H2O2 for 2 hours, 60 μM compound, H2DCF dye
Method: In this example, to examine whether SD-29 can prevent generation of reactive oxygen species (ROS) under stress, the effect of SD-29 on H2O2 treated Arabidopsis protoplasts was evaluated. Protoplasts were treated with H2O2 for 2 hours with and without 60 μM SD-29. An untreated control was also evaluated. The protoplasts were stained with reactive oxygen species visualization dye H2DCF that fluoresces in the presence of ROS and the treated protoplasts were evaluated using fluorescent microscopy.

RACK1A:GFP = RACK1A:GFP expression in transformed Arabidopsis plants; assay type: in vivo, Arabidopsis thaliana; conditions: 60 μM compound with 250 mM salt for 6 hours
Method: Arabidopsis plants transformed with a RAC[…]:GFP construct were analyzed to determine the effect of SD-29 on expression of RAC[…]. The experimental plant was treated with 60 μM SD-29 with 250 mM salt for 6 hours. Controls were treated with and without salt. […] It is quite possible that downregulation of RAC[…] expression by SD-29 may be the cellular mechanism that allow the plants to withstand salt stress.

bean plants = assay: salt-induced stress in bean plants; assay type: in vivo; conditions: 60 μM compound plus 250 mM NaCl, 96 hours, about 24° C.
Method: In the examples described herein, the test compounds (e.g., SD-29 or analogs thereof) were dissolved in dimethyl sulfoxide (DMSO) to provide a 20 mM concentration. Micromolar concentrations were then prepared as needed by addition to the water incubation media. Unless stated otherwise, the experimental plants were incubated with the roots immersed in the water containing the compound. The control plants received only DMSO in the same amount as that of the compound. Salt-induced stress was evaluated with bean plants at room temperature (about 24° C.) for 96 hours. All plants received sufficient incubation media to last the seven days. Plant A received 60 μM SD-29 plus 250 mM NaCl and plant B received 250 mM NaCl in the incubation medium.

rice leaves = assay: uptake of salts from the incubation medium by rice leaves; assay type: in vivo; conditions: 60 μM compound, 250 mM NaCl, vs non-treated leaves
Method: The effect of SD-29 on modulating salt-induced stress was evaluated with rice detached leaves at room temperature (about 24° C.) for seven days in a water incubation medium. All plants received sufficient incubation medium to last the seven days. Plant A (left most) received 250 mM NaCl plus DMSO, Plant B (right of Plant A) received 60 μM SD-29 and 250 mM NaCl, and plant D received 60 μM SD-29 in the incubation medium. The incubation medium of Plant C was untreated. To examine whether the salt stress resistance comes from the differential uptake of sodium ions due to the drug treatment, the uptake of salts from the incubation medium was assayed (leaves from FIG. 5). […] The base point is indicated with 250 mM of salt line.

MnSOD = assay: native gel assay of Mn-SOD activity in rice during salt stress; assay type: in vivo; conditions: salt stress conditions, NaCN in gel activity buffer
[1] = tested on: salt glands (trichome) on Arabidopsis leaves; assay: sodium green dye staining of Arabidopsis leaves (sodium uptake); assay type: in vivo, Arabidopsis thaliana; conditions: 1 week old plants, 100 mM salt, 60 μM compound, three hours
Method: 1 week old Arabidopsis plants were treated with and without 100 mM salt, as well as with and without the presence of 60 μM SD-29, in incubation medium for three hours. The leaves were stained with sodium green dye (5 μM) according to the manufacturer's protocol (Invitrogen, Calif.) and analyzed by fluorescent microscopy to determine if the plants take up sodium from the incubation medium. The dye fluoresces in the presence of sodium ion.

T1 sequence (O24456 whole entry): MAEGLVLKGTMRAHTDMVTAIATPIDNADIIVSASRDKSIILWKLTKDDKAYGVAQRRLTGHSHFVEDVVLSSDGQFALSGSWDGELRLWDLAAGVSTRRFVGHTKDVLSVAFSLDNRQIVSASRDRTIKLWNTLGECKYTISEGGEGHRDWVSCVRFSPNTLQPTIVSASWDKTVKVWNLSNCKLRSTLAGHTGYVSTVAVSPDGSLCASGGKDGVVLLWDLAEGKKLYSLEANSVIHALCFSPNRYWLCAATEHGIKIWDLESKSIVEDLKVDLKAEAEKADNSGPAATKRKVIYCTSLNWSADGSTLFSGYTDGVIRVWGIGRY

Nn1c(S)nnc1-c1ccc(F)cc1 [SD-29]
Arabidopsis RACK1A tyrosine phosphorylation during heat stress (Arabidopsis RACK1A; 60 μM, 42° C. for six hours, western blot of leaf lysates): prevents Arabidopsis RACK1A tyrosine phosphorylation
Arabidopsis RACK1A tyrosine phosphorylation at increased temperature (Arabidopsis RACK1A; 42° C. for three hours, western blot, antibody to phosphorylated Y248): effective to prevent Arabidopsis RACK1A tyrosine phosphorylation at increased temperature
salt stress-induced chlorosis of rice leaves (rice detached leaves; 60 μM compound and 250 mM NaCl, about 24° C.): protect the rice leaves from salt stress-induced chlorosis
rice leaf appearance with compound alone (rice detached leaves; 60 μM compound without salt, vs untreated Leaf C): showed little difference from control Leaf C
accumulation of H2O2-induced reactive oxygen species in protoplasts (Arabidopsis protoplasts): prevented accumulation of H2O2-induced reactive oxygen species
RACK1A:GFP expression (RACK1A:GFP): down regulation of RACK1A:GFP expression
bean plant condition in high salt (bean plants): thrived (did not wilt) in the high salt conditions
sodium ions remaining in the incubation medium (rice leaves): more sodium ions remained in the incubation medium
MnSOD activity in rice (MnSOD): upregulates MnSOD activity
salt uptake through the salt glands (sodium green fluorescence) [1]: prevents salt uptake through the salt glands (trichome)

From patent publication US11737462B2, “Methods for modulating plant response to environmentally-induced stress” (Howard University, priority 2012, dated 2023)
